# Measured values taken from patent US5434246A, “Parathyroid hormone derivatives” (Takeda Chemical Industries, Ltd., priority 1992, dated 1995).
# Square brackets hold non-standard residues; d marks the D form. Ends that are not written are not given here. Peptide text beside a SMILES is read from it. Orn = NCCC[C@H](N)C(=O)O
# Target: T1, PTH receptor (Mus musculus, UniProt P41593)
# T1 construct: a mouse cranial bone-derived osteoblast-like cell strain, MC3T3-EI cells; endogenous in cells; host or cells: MC3T3-E1 mouse osteoblast-like cells
# T1 sequence (P41593 27-591): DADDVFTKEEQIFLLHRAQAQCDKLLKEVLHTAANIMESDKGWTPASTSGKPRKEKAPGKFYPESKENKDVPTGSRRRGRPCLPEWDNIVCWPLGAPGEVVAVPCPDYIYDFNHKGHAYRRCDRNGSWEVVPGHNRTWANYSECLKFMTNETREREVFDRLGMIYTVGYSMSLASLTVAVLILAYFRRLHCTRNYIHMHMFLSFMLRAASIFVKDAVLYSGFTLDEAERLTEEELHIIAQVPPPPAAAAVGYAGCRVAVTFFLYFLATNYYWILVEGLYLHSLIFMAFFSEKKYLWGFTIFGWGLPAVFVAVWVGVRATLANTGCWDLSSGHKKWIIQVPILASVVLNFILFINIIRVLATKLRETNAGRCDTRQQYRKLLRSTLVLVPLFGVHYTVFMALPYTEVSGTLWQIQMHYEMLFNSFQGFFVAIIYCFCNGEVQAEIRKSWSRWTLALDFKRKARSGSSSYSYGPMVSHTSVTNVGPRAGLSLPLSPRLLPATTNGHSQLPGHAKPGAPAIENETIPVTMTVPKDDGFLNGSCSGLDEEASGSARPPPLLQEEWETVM
# Test: cAMP production in MC3T3-EI osteoblast-like cells (biological activity of PTH(1-34) derivatives)
# Assay type: cell-based
# Settings: 0.01-100 nM derivative, room temperature 30 minutes, hPTH(1-34) standard = 1.00
# Protocol: The biological activity of the PTH (1-34) derivatives was evaluated by a modified version of the method reported by Shigeno et al. in The Journal of Biological Chemistry 263, 18369-18377 (1988). A culture solution (Hank's solution, containing 20 mM N-2-hydroxyethylpiperazine-N'-2-ethanesulfonic acid-(HEPES), 0.1% bovine serum albumin and 0.5 mM isobutylmethyl-xanthine) containing a 0.01, 0.1, 1, 10 or 100 nM derivative was added in an amount of 100 μl to a mouse cranial bone-derived osteoblast-like cell strain, MC3T3-EI cells, cultivated on a 96-well multiplate (Nunclon, Nunc), followed by reaction at room temperature for 30 minutes. After addition of 100 μl of 0.2N hydrochloric acid, the mixture was immersed in boiling water for 2.5 minutes, and cyclic adenosine monophosphate (cAMP) produced by a PTH receptor was extracted from the cells. The total cAMP in the culture solution and the cells was assayed using a commercial radioimmunoassay kit (cyclic AMP [^125 I] kit "Du Pont-Daiichi", Daiichi Kagaku Yakuhin).
row,Compound,"Biological Activity, Represented by Relative Activity to hPTH(1-34)"
1,CC[C@H](C)[C@H](NC(=O)[C@H](CCC(=O)O)NC(=O)[C@@H](C)NC(=O)[C@@H](NC(=O)[C@@H](N)CO)C(C)C)C(=O)N[C@@H](CCC(N)=O)C(=O)N[C@@H](CC(C)C)C(=O)N[C@@H](CCSC)C(=O)N[C@@H](Cc1c[nH]cn1)C(=O)N[C@@H](CC(N)=O)C(=O)N[C@@H](CC(C)C)C(=O)NCC(=O)N[C@@H](CCCCN)C(=O)N[C@@H](Cc1c[nH]cn1)C(=O)N[C@@H](CC(C)C)C(=O)N[C@@H](CC(N)=O)C(=O)N[C@@H](CO)C(=O)N[C@@H](CCSC)C(=O)N[C@@H](CCC(=O)O)C(=O)N[C@@H](CCCNC(=N)N)C(=O)N[C@H](C(=O)N[C@@H](CCC(=O)O)C(=O)N[C@@H](Cc1c[nH]c2ccccc12)C(=O)N[C@@H](CC(C)C)C(=O)N[C@@H](CCCNC(=N)N)C(=O)N[C@@H](CCCCN)C(=O)N[C@@H](CCCCN)C(=O)N[C@@H](CC(C)C)C(=O)N[C@@H](CCC(N)=O)C(=O)N[C@@H](CC(=O)O)C(=O)N[C@H](C(=O)N[C@@H](Cc1c[nH]cn1)C(=O)N[C@@H](CC(N)=O)C(=O)N[C@@H](Cc1ccccc1)C(=O)O)C(C)C)C(C)C [[D-Ala^3]hPTH(1-34)],2.17
2,"SVSEIQLMHNLGKHKKSMERVEWLRKHLQDVHNF [[Lys^15,16,His^27]hPTH(1-34)]",1.49
3,"SVSEIQLMHNLGKHLKDMERVEWLRKKLQDVHNF [[Lys^16,Asp^17]hPTH(I-34), [Lys^16 Asp^17]hPTH(1-3)]",1.24
4,CC[C@H](C)[C@H](NC(=O)[C@H](CCC(=O)O)NC(=O)[C@H](CO)NC(=O)[C@@H](NC(=O)[C@@H](N)CO)C(C)C)C(=O)N[C@@H](CCC(N)=O)C(=O)N[C@@H](CC(C)C)C(=O)N[C@@H](CCSC)C(=O)N[C@@H](Cc1c[nH]cn1)C(=O)N[C@@H](CC(N)=O)C(=O)N[C@@H](CC(C)C)C(=O)NCC(=O)N[C@@H](CCCCN)C(=O)N[C@@H](Cc1c[nH]cn1)C(=O)N[C@@H](CC(C)C)C(=O)N[C@@H](CCC(N)=O)C(=O)N[C@@H](CO)C(=O)N[C@@H](CCSC)C(=O)N[C@@H](CCC(=O)O)C(=O)N[C@@H](CCCNC(=N)N)C(=O)N[C@H](C(=O)N[C@@H](CCC(=O)O)C(=O)N[C@@H](Cc1c[nH]c2ccccc12)C(=O)N[C@@H](CC(C)C)C(=O)N[C@@H](CCCNC(=N)N)C(=O)N[C@@H](CCCCN)C(=O)N[C@@H](CCCCN)C(=O)N[C@@H](CC(C)C)C(=O)N[C@@H](CCC(N)=O)C(=O)N[C@@H](CC(=O)O)C(=O)N[C@H](C(=O)N[C@@H](Cc1c[nH]cn1)C(=O)N[C@@H](CC(N)=O)C(=O)N[C@@H](Cc1ccccc1)C(=O)O)C(C)C)C(C)C [[Gln^16]hPTH(1-34)],1.73
5,"CC[C@H](C)[C@H](NC(=O)[C@H](CCC(=O)O)NC(=O)[C@H](CO)NC(=O)[C@@H](NC(=O)[C@@H](N)CO)C(C)C)C(=O)N[C@@H](CCC(N)=O)C(=O)N[C@@H](CC(C)C)C(=O)N[C@@H](CCSC)C(=O)N[C@@H](Cc1c[nH]cn1)C(=O)N[C@@H](CC(N)=O)C(=O)N[C@@H](CC(C)C)C(=O)NCC(=O)N[C@@H](CCCCN)C(=O)N[C@@H](Cc1c[nH]cn1)C(=O)N[C@@H](CC(C)C)C(=O)N[C@@H](CCCN)C(=O)N[C@@H](CO)C(=O)N[C@@H](CCSC)C(=O)N[C@@H](CCC(=O)O)C(=O)N[C@@H](CCCNC(=N)N)C(=O)N[C@H](C(=O)N[C@@H](CCC(=O)O)C(=O)N[C@@H](Cc1c[nH]c2ccccc12)C(=O)N[C@@H](CC(C)C)C(=O)N[C@@H](CCCNC(=N)N)C(=O)N[C@@H](CCCCN)C(=O)N[C@@H](CCC(N)=O)C(=O)N[C@@H](CC(C)C)C(=O)N[C@@H](CCC(N)=O)C(=O)N[C@@H](CC(=O)O)C(=O)N[C@H](C(=O)N[C@@H](Cc1c[nH]cn1)C(=O)N[C@@H](CC(N)=O)C(=O)N[C@@H](Cc1ccccc1)C(=O)O)C(C)C)C(C)C [[Orn^16,Gln^27]hPTH(1-34), [Orn^16,Gln^27]hPTH(1-45)] (H-SVSEIQLMHNLGKHL[Orn]SMERVEWLRKQLQDVHNF-OH)",1.82
6,"SVSEIQLMHNLGKHLNSMERVEWLQQQLQDVHNF [[Gln^25,26,27]hPTH (1-34), [Gln^25,26,27]hPTH(1-34)]",0.41
7,"SVSEIQLMHNLGKHLKKMERVEWLRKKLQDVHNF [[Lys^16,17]hPTH(1-34)]",8.85
8,"SVSEIQLMHNLGKHKKKMERVEWLRKKLQDVHNF [[Lys^15,16,17]hPTH (1-34), [Lys^15,16,17]hPTH(1-34)]",7.62
